Measurements published in patent publication US11834401B2, “Treating and preventing diseases by modulating cell mechanics” (THE JOHNS HOPKINS UNIVERSITY, priority 2013, dated 2023).

How the values were obtained:
Dictyostelium cells = test: Micropipette aspiration cortical tension, Dictyostelium; type: cell-based, Dictyostelium discoideum
Method: Micropipette aspiration was used for cortical tension and creep response measurements. Confocal imaging was performed on a Zeiss 510 Meta with a 63× (numerical aperture [NA] 1.4) objective (Carl Zeiss, Jena, Germany). Epifluorescence and TIRF imaging was performed in a 22° C. temperature controlled room with an Olympus IX81 microscope using a 40× (NA 1.3) or 60× (NA 1.49) objective and a 1.4× optovar (Olympus, Center Valley, Pa.), as previously described. Image analysis was performed with ImageJ (rsb.info.nih.gov/ij).
The instrumental and experimental setups have been previously described (Effler J C, et al., 2006; Kee Y-S, et al., 2013). Micropipette aspiration assays were all carried out in growth media with 0.1% DMSO. For cortical tension measurements of Dictyostelium cells, pressure was applied to the cell cortex with a micropipette (2-3 m radius, Rp) to the equilibrium pressure (ΔP) where the length of the cell inside the pipette (Lp) was equal to Rp. The effective cortical tension (Teff) was calculated by applying the Young-Laplace equation: ΔP=2Teff(1/Rp-1/Rc), where Rc is the radius of the cell and ΔP is the equilibrium pressure when Lp=Rp (Derganc J, et al., 2000; Octtaviani E, et al., 2006). For creep tests on mammalian strains, a constant aspiration stress was applied over 60 s. The micropipette radius was 3.5-4.5 m. For quantification, the Lp/Rp ratio values was measured every two seconds and plotted as a function of time. A10.7 and HEK293 cells could only be aspirated at a low pressure range (0.15 nN/μm^2), while HPDE, ASPC-1, and HL-60 cells could be aspirated at higher pressure ranges (0.25 nN/μm^2) because they were stiffer.

[1] = target: T1, Dictyostelium myosin II ADCT (Dictyostelium discoideum, UniProt P08799); test: In vitro myosin assembly assay, with or without 14-3-3; type: biochemical; details: with or without purified 14-3-3
T1 construct: fused to the assembly domains of Dictyostelium myosin II (residues 1533-1823); 6xHis (N); mCherry (N); made in house; host or cells: E. coli BL-21 Star (DE3)
Source text: (§1) The sedimentation assays were used to assess myosin II assembly in cells. The assembly assay used purified proteins (N-terminal 6×His tag (SEQ ID NO: 1), fused to the mCherry fluorophore, fused to the assembly domains of Dictyostelium myosin II (residues 1533-1823), human myosin IIA (residues 1722-1960), and human myosin IIB (residues 1729-1976), and 6×His-tagged (SEQ ID NO: 1) fused Dictyostelium 14-3-3). Purified chicken nonmuscle IIB heavy meromyosin (HMM) was used for in vitro motility.
(§2) Bacterial expression plasmids coding for an N-terminal 6×His tag (SEQ ID NO: 1), fused to the mCherry fluorophore, fused to the assembly domains of Dictyostelium myosin II (residues 1533-1823), human myosin IIA (residues 1722-1960), or human myosin IIB (residues 1729-1976) were generated using standard cloning techniques.
Dictyostelium 14-3-3 was also expressed in bacteria as a 6×His-tagged (SEQ ID NO: 1) fusion protein (Zhou Q et al., 2010). Proteins were expressed in BL-21 Star™ (DE3) (Invitrogen) E. coli in LB shaking culture overnight at room temperature. […] Protein purity was verified by SDS-PAGE followed by Coomassie Blue staining, and concentration was quantified by UV absorbance using the calculated extinction coefficient for each protein's amino acid sequence. […]

human myosin IIB = target: T2, human myosin IIB (Homo sapiens, UniProt P35580); test: In vitro myosin assembly assay; type: biochemical; details: n=3
T2 construct: human myosin IIB (residues 1729-1976); 6xHis (N); mCherry (N); made in house; host or cells: E. coli BL-21 Star (DE3)
Source text: as §1, §2
In vitro assembly of myosin was conducted according to the method of Zhou et al, 2010 (Zhou Q et al., 2010), with a number of modifications. The protein concentration for each species in the tube was increased to […] to ensure that the smaller protein was adequately visible by Coomassie Blue staining, and the incubation time and temperature was adjusted to 30 min at the physiological temperature for each myosin species (22° C. for Dictyostelium myosin, 37° C. for human myosins). These temperatures were also used during the centrifugation step.

[2] = system: chicken non-muscle IIB (NMIIB) HMM; test: In vitro motility assay (gliding actin filaments); type: biochemical; details: 500 nM each alone; 250 nM each in 1:1 ratio
Source text: as §1
The chicken non-muscle IIB (NMIIB) HMM construct (residues 1-1228, GenBank™ accession number M93676, no splice insert) was purified as previously described (Norstrom M F, et al., 2010). Motility assays were performed at 22° C. and imaged on Zeiss Axiovert 200 microscope with an Andor Luca camera. The flow cells were constructed using a glass slide, two pieces of double-sided tape, and nitrocellulose-coated coverslip. Flow cells were incubated with 0.05 mg/ml green fluorescent protein antibodies (MP Biomedicals, 0.05 mg/ml in assay buffer (AB) without DTT: 25 mM KCl, 25 mM Imidazole·HCl, pH 7.5, 1 mM K·EGTA, 4 mM MgCl2; 2 min incubation time), followed by a bovine serum albumin block (1 mg/ml in AB—as above with 10 mM DTT; 6 min incubation time). NMIIB was added to the flow cell at a concentration of 420 nM and incubated for 2 min. […]

microtubule = test: Microtubule structure; type: cell-based

T1 sequence (P08799 1533-1823): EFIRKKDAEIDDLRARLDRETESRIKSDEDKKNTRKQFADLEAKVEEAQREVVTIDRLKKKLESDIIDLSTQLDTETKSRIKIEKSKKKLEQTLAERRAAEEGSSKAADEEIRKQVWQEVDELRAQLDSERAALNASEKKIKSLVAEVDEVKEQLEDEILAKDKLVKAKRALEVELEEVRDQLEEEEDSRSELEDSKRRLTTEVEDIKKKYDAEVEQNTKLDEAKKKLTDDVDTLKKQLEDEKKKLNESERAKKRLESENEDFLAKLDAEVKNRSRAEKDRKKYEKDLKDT
T2 sequence (P35580 1729-1976): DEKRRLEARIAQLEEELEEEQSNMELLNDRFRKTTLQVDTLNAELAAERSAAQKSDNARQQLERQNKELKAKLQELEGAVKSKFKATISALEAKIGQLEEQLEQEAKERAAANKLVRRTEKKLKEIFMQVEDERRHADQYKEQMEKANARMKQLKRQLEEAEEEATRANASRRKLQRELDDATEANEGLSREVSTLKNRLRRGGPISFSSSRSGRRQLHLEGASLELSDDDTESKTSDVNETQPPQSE

In the case of Nc1ccc(Cl)c(Cl)c1 [3,4-DCA, 3,4-dichloroaniline], the “effect on cortical tension” value (Dictyostelium cells; WT cells) is reported as “had no effect”, the “in vitro assembly vs DMSO control” value [1] is reported as “no significant change in in vitro assembly” and the “in vitro assembly vs DMSO control” value (human myosin IIB) is reported as “unaffected”. The “non-muscle myosin IIB velocity (gliding filament velocity of actin filaments)” value [2] was “no significant effect” and the microtubule structure (microtubule) was “neither 3,4-DCA nor 4-HAP affected microtubule structure”.

For CC(=O)c1ccc(O)cc1 [4-HAP, 4-hydroxyacetophenone], the “change in cortical tension, myosin II null cells” value (Dictyostelium cells; myoI null cells as printed) was “did not experience a similar shift in mechanics”, the “change in cortical tension, S456L myosin cells” value (Dictyostelium cells; myoII::GFP-S456L cells) was “did not have a change in cortical tension” and the “in vitro assembly vs DMSO control” value [1] was “no significant change in in vitro assembly”. For the same molecule, the “in vitro assembly vs DMSO control” value (human myosin IIB) was “unaffected”, the “non-muscle myosin IIB velocity (gliding filament velocity of actin filaments)” value [2] was “no significant effect” and the microtubule structure (microtubule) was “neither 3,4-DCA nor 4-HAP affected microtubule structure”.
